Laboratory results taken from ChEMBL document CHEMBL1156590, “Stereoselectivity of binding of alpha-(N-benzylamino)benzylphosphonic acids to prostatic acid phosphatase” (Bioorg Med Chem Lett, 2008).
pIC50: −log10 of the molar value.

Target: T1, Prostatic acid phosphatase (Homo sapiens, UniProt P15309)
T1 sequence (P15309 whole entry): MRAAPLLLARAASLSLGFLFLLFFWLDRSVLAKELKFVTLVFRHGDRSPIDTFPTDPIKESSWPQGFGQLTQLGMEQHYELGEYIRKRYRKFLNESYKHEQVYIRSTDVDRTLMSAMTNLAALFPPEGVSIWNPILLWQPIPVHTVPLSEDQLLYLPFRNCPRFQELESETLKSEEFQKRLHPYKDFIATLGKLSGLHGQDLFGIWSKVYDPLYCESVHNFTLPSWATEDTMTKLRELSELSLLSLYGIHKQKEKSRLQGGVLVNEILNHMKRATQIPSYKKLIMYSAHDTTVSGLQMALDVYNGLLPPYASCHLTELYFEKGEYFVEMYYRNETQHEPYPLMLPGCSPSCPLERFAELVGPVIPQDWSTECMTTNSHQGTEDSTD
Test: Inhibition of human prostatic acid phosphatase

Row | pIC50 | Structure (SMILES)
1 | 5.92 | C[C@H](N[C@@H](c1ccccc1)P(=O)(O)O)c1ccccc1
2 | 7.59 | C[C@@H](N[C@H](c1ccccc1)P(=O)(O)O)c1ccccc1
3 | 7.74 | COc1ccc([C@@H](N[C@H](C)c2ccccc2)P(=O)(O)O)cc1
4 | 5.97 | COc1ccc([C@H](N[C@@H](C)c2ccccc2)P(=O)(O)O)cc1
